Laboratory results reported in patent publication US5880095A, “Cholesteryl ester transfer protein inhibitor peptides and prophylactic and therapeutic anti-arteriosclerosis agents” (LG Chemical Ltd., priority 1994, dated 1999).
Read-outs that look alike come from different tables or passages of the source. Values belong to the sequence of their own block, whether it stands above or below them. No end group written: not given here.

Columns and labels:
[1] = target: T1, pure CETP separated from human blood plasma (Homo sapiens, UniProt P11597); experiment: Determination of CETP inhibitory activity (CE transfer from [3H]-HDL to LDL), pure CETP as CETP source; assay type: biochemical; conditions: for inhibition at 7 µM: final conc. 7 μM; for inhibition at 9 µM: final conc. 9 μM
T1 construct: Pure CETP was separated from human blood plasma in accordance with the method of Hesler et al; from tissue; host or cells: human blood plasma
T1 sequence (P11597 18-493): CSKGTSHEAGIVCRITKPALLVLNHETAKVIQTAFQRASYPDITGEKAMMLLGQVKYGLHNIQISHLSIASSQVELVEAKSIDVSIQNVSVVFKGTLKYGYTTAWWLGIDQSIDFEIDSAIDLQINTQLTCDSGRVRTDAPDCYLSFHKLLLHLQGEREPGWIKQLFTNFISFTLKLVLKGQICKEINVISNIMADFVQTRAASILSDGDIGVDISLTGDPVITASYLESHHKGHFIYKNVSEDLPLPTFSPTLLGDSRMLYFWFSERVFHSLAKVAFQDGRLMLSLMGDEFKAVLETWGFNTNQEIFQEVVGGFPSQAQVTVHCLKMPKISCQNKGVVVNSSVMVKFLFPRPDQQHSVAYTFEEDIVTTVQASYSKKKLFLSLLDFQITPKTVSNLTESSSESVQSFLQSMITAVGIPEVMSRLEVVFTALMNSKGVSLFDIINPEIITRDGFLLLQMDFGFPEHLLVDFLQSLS
Description: (§1) LDL and [^3 H]-cholesteryl oleate-labelled HDL were synthesized in accordance with the method of Morton et al.(see, J. Biol. Chem., 256, 11992-11995(1981)) and then separated using an ultracentrifuge(Beckman XL 70). LDL and [^3 H]-HDL, thus prepared, were used as a CE-receptor and a CE-donor, respectively.
(§2) Pure CETP was separated from human blood plasma in accordance with the method of Hesler et al.(see, J. Biol. Chem., 262, 2275-2282(1987)) and used as a CETP source.
(§3) 0.3 ml of LDL, 0.05 ml of [^3 H]-HDL and 0.05 ml of the CETP source, which were prepared above, and 0.05 ml of a CETP inhibitor were added into a 1.5 ml tube and reacted at 37° C. for 3 hours.
(§4) When the reaction was finished, LDL was precipitated in accordance with the method of Morton et al.(see, Biochim. Biophys. Acta, 663, 350-355(1981)). The amount of the isotope transferred to LDL was determined with a liquid scintillation counter(Packard Tricarb 1600 TR) using a part of the supernatant, and the activity of CETP was calculated therefrom.
(§5) The inhibitory activity of the CETP inhibitor was calculated from the CETP activities of the experimental group, in which the CETP inhibitor was added, and that of control group, in which no CETP inhibitor was added, as follows: [formula]

[2] = target: T2, CETP (human blood plasma as CETP source) (Homo sapiens, UniProt P11597); experiment: Determination of CETP inhibitory activity, human blood plasma itself as CETP source; assay type: biochemical
T2 construct: human blood plasma itself was used as the CETP source; from tissue; host or cells: human blood plasma (used as such)
T2 sequence (P11597 18-493): T1 sequence (P11597 18-493)
Description: as §1, §3, §4, §5
Further, the same procedures as in the Reference Example, except that human blood plasma itself was used as the CETP source, were repeated to determine CETP inhibitory activity of pure 3 kDa peptide.
CETP inhibitory activities of peptides P28, P10, P18, P24, P20 and P14 were determined in accordance with the method of Reference Example 1 using pure CETP or human blood plasma as a CETP source. To exclude possible nonspecific inhibition, a 2 kDa soluble peptide having an optional amino acid sequence was synthesized, and CETP inhibitory activity thereof was determined in a similar manner(control group).

[3] = test system: Human fibroblast cell line(A431, ATCC CRL 1555); experiment: Toxicity test on cultured cells; assay type: cell-based; conditions: 10% (wt/vol) peptide, 72 hours, DMEM with 10% FBS, compared with control without peptide
Description: Human fibroblast cell line(A431, ATCC CRL 1555) was cultured on DMEM medium containing 10% fetal bovine serum(FBS), with the addition of 10% (wt/vol) Peptide P28, P18, P10, P24, P20 or P14, for 72 hours.

CETP = target: T3, CETP (Homo sapiens, UniProt P11597); experiment: CETP inhibitory activity of Peptide P28 according to the substrate (CE-receptor VLDL, LDL, HDL or LDLR); assay type: biochemical; conditions: final concentration 2 μM
T3 construct: Pure CETP was separated from human blood plasma in accordance with the method of Hesler et al; from tissue; host or cells: human blood plasma
T3 sequence (P11597 18-493): T1 sequence (P11597 18-493)
Description: as §1, §2, §3, §4, §5
In order to identify the inhibitory mechanism of Peptide P28 in blood, CETP inhibitory activity of Peptide P28 was determined in accordance with the method of Reference Example 1, using VLDL, LDL, HDL or re-synthesized LDL(LDLR) as a CE-receptor. LDLR was synthesized from LDL obtained in Reference Example 1 by the method of Morton et al.(see, J. Biol. Chem., 256, 11992-11995(1981)). The LDL was delipidated with chloroform and subjected to a gel chromatography to obtain ApoB100 protein. Phosphatidylcholine and cholesteryl oleate was thoroughly mixed, dried using nitrogen gas, and ApoB100 protein obtained above was added thereto. The mixture was reacted with stirring, dialyzed against tris buffer, and subjected to a gel chromatography to obtain LDLR.

[4] = final conc. of peptide 2 μM, CETP source pure CETP, synthesized peptides
[5] = conc. of inhibitor 2 μM, CETP source human plasma, peptides expressed in E. coli, read-out: Inhibitory Activity (Mean ± SD)
[6] = alanine variants of P10, CETP source not given
[7] = final conc. of peptide 2 μM, CETP source human plasma, P28' and P13 produced in E. coli, read-out: Inhibitory Activity

- Inhibitory Activity (Mean ± S.D.) [1, 4]: 100 ± 2.5%
- inhibition at 2 µM [2, 5]: 50 ± 0.8%
Sequence: EDTSPEDKMQDYVKQATRTAQDAL [Peptide P24]
- change in growth condition and morphology of cultured cells [3]: no change

- Inhibitory Activity (Mean ± S.D.) [1, 4]: 50 ± 3.5%
- inhibition at 2 µM [2, 5]: 15 ± 1.5%
Sequence: EDTSPEDKMQDYVK [Peptide P14]
- change in growth condition and morphology of cultured cells [3]: no change

- inhibition at 7 µM [1, 6]: 41%
Sequence: EDTSPEDKMA [Variant J]

- inhibition at 7 µM [1, 6]: -15%
Sequence: EATSPEDKMQ [Variant B]

- inhibition at 2 µM ([1]; final conc. of peptide 2 μM, CETP source pure CETP, synthesized peptides, read-out: Inhibitory Activity (Mean ± S.D.)): 100 ± 2%
- inhibition at 2 µM [2, 7]: 45 ± 2.3%
- inhibition at 2 µM ([2]; final conc. of peptide 2 μM, CETP source human plasma, synthesized peptides, read-out: Inhibitory Activity (Mean ± S.D.)): 50 ± 4.5%
Sequence: EDTSPEDKMQ [Peptide P10]
- change in growth condition and morphology of cultured cells [3]: no change

- inhibition at 2 µM ([1]; final conc. 2 μM, alanine variants of P10, CETP source not given, read-out: CETP inhibitory activity): -3%
Sequence: EDTSPEAKMQ [Variant G]

- inhibition at 9 µM [1, 6]: 69%
Sequence: EDTSPEDKAQ [Variant I]

- inhibition at 8 µM ([1]; final conc. 8 μM, alanine variants of P10, CETP source not given): -6%
Sequence: EDASPEDKMQ [Variant C]

- inhibition at 2 µM [2, 7]: 34 ± 2.9%
Sequence: SEAEDASLLSFMQ [Peptide P13]

- inhibition at 0.001 µM ([1]; 1 nM, pure CETP separated from human blood plasma, read-out: CETP inhibitory activity (FIG. 4, curve A)): ~100%
- inhibition at 0.001 µM ([2]; 1 nM, human blood plasma itself as CETP source, read-out: CETP inhibitory activity (FIG. 4, curve B)): ~50%
- inhibition at 2 µM (CETP; CE-receptor LDL, read-out: inhibition of the transfer of CE from HDL to LDL): 50%
- inhibition at 2 µM (CETP; CE-receptor VLDL, read-out: inhibition of the transfer of CE from HDL to VLDL): ~10%
- inhibition at 2 µM (CETP; CE-receptor re-synthesized LDL (LDLR), read-out: inhibition of the transfer of CE from HDL to LDLR): 55%
Sequence: EDTSPEDKMQDYVKQATRTAQDALTSVK [Peptide P28]

- Inhibitory Activity (Mean ± S.D.) [1, 4]: 90 ± 3.5%
- Inhibitory Activity (Mean ± S.D.) ([2]; final conc. of peptide 2 μM, CETP source human plasma, synthesized peptides): 40 ± 5.5%
Sequence: EDTSLLDKMQDYVKQATR [Peptide P18]
- change in growth condition and morphology of cultured cells [3]: no change

- inhibition at 5 µM ([1]; final conc. 5 μM, alanine variants of P10, CETP source not given): 5%
Sequence: EDTSPEDAMQ [Variant H]

- inhibition at 7 µM [1, 6]: -12%
Sequence: EDTAPEDKMQ [Variant D]

- inhibition at 9 µM [1, 6]: -6%
Sequence: EDTSAEDKMQ [Variant E]

- Inhibitory Activity (Mean ± S.D.) [1, 4]: 90 ± 1.5%
- inhibition at 2 µM [2, 5]: 45 ± 2.2%
Sequence: EDTSPEDKMQDYVKQATRTA [Peptide P20]
- change in growth condition and morphology of cultured cells [3]: no change

- inhibition at 7 µM [1, 6]: -12%
Sequence: ADTSPEDKMQ [Variant A]

- inhibition at 6 µM ([1]; final conc. 6 μM, alanine variants of P10, CETP source not given): 29%
Sequence: EDTSPADKMQ [Variant F]
